Assay results as given in patent publication US20260226493A1, “HERBICIDE RESISTANT PLANTS” (SYNGENTA CROP PROTECTION AG, priority 2023, published 2026).

Columns and labels:
Assay in all cases: BIO3-BIO1 mutant enzyme activity in the presence of herbicide, percentage inhibition (fluorometric DAPA assay)
Format in all cases: biochemical
Details in all cases: read-out: percentage inhibition
[1] = target: T1, Arabidopsis thaliana BIO3-BIO1 (BioDA) mutants (Arabidopsis thaliana, UniProt B0F481, W392S)
T1 construct: with the predicted N-terminal mitochondrial transit peptide removed; 6xHis-tag (N); thrombin cleavage site (N); made in house; host or cells: E. coli BL21 (DE3) bioA
T1 sequence (B0F481 23-833 W392S): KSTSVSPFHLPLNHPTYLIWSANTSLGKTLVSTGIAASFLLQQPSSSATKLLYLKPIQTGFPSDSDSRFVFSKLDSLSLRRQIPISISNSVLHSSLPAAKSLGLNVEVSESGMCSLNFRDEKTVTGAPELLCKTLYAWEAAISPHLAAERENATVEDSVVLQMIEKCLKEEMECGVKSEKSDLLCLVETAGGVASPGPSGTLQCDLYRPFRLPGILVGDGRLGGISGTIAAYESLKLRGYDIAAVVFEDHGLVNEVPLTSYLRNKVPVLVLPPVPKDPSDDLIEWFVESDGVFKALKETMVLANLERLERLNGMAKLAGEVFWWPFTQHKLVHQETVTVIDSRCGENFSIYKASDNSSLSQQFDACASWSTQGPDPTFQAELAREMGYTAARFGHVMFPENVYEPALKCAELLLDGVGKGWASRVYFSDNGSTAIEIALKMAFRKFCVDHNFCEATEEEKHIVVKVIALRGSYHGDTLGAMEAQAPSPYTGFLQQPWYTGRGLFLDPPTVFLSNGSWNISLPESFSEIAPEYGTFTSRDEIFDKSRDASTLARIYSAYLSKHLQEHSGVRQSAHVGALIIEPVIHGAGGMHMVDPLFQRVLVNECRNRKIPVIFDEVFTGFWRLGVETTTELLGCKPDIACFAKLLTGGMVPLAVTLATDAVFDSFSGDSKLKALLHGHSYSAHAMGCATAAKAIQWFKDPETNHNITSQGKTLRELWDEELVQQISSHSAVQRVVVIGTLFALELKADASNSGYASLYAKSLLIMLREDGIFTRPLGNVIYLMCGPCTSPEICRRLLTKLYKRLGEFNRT
Outline: (§1)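 Percentage inhibition compares activity at one of three herbicide concentrations against DMSO, from o-phthalaldehyde-derivatised DAPA fluorescence (ex 410, em 470 nm). Purified N-His BIO3-BIO1 variants (50 nM, E. coli-expressed) saw herbicide 10 min at 20 °C in pH 8.6 EPPS buffer, then 20 μM KAPA plus 100 μM spermidine for 75 min at 20 °C.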

[2] = target: T2, Arabidopsis thaliana BIO3-BIO1 (BioDA) mutants (Arabidopsis thaliana, UniProt B0F481, T393V)
T2 construct: with the predicted N-terminal mitochondrial transit peptide removed; 6xHis-tag (N); thrombin cleavage site (N); made in house; host or cells: E. coli BL21 (DE3) bioA
T2 sequence (B0F481 23-833 T393V): as the sequence (B0F481 23-833 W392S) above, with S370W, T371V counted along it
Outline: as §1

[3] = target: T3, Arabidopsis thaliana BIO3-BIO1 (BioDA) mutants (Arabidopsis thaliana, UniProt B0F481, A609M)
T3 construct: with the predicted N-terminal mitochondrial transit peptide removed; 6xHis-tag (N); thrombin cleavage site (N); made in house; host or cells: E. coli BL21 (DE3) bioA
T3 sequence (B0F481 23-833 A609M): as the sequence (B0F481 23-833 W392S) above, with S370W, A587M counted along it
Outline: as §1

[4] = target: T4, Arabidopsis thaliana BIO3-BIO1 (BioDA) mutants (Arabidopsis thaliana, UniProt B0F481, W392D)
T4 construct: with the predicted N-terminal mitochondrial transit peptide removed; 6xHis-tag (N); thrombin cleavage site (N); made in house; host or cells: E. coli BL21 (DE3) bioA
T4 sequence (B0F481 23-833 W392D): as the sequence (B0F481 23-833 W392S) above, with S370D counted along it
Outline: as §1

[5] = target: T5, Arabidopsis thaliana BIO3-BIO1 (BioDA) mutants (Arabidopsis thaliana, UniProt B0F481, F348V)
T5 construct: with the predicted N-terminal mitochondrial transit peptide removed; 6xHis-tag (N); thrombin cleavage site (N); made in house; host or cells: E. coli BL21 (DE3) bioA
T5 sequence (B0F481 23-833 F348V): as the sequence (B0F481 23-833 W392S) above, with F326V, S370W counted along it
Outline: as §1

[6] = target: T6, Arabidopsis thaliana BIO3-BIO1 (BioDA) mutants (Arabidopsis thaliana, UniProt B0F481, A609H)
T6 construct: with the predicted N-terminal mitochondrial transit peptide removed; 6xHis-tag (N); thrombin cleavage site (N); made in house; host or cells: E. coli BL21 (DE3) bioA
T6 sequence (B0F481 23-833 A609H): as the sequence (B0F481 23-833 W392S) above, with S370W, A587H counted along it
Outline: as §1

[7] = target: T7, Arabidopsis thaliana BIO3-BIO1 (BioDA) mutants (Arabidopsis thaliana, UniProt B0F481, W391M)
T7 construct: with the predicted N-terminal mitochondrial transit peptide removed; 6xHis-tag (N); thrombin cleavage site (N); made in house; host or cells: E. coli BL21 (DE3) bioA
T7 sequence (B0F481 23-833 W391M): as the sequence (B0F481 23-833 W392S) above, with W369M, S370W counted along it
Outline: as §1

[8] = target: T8, Arabidopsis thaliana BIO3-BIO1 (BioDA) mutants (Arabidopsis thaliana, UniProt B0F481, S509H)
T8 construct: with the predicted N-terminal mitochondrial transit peptide removed; 6xHis-tag (N); thrombin cleavage site (N); made in house; host or cells: E. coli BL21 (DE3) bioA
T8 sequence (B0F481 23-833 S509H): as the sequence (B0F481 23-833 W392S) above, with S370W, S487H counted along it
Outline: as §1

[9] = target: T9, Arabidopsis thaliana BIO3-BIO1 (BioDA) mutants (Arabidopsis thaliana, UniProt B0F481, P421L)
T9 construct: with the predicted N-terminal mitochondrial transit peptide removed; 6xHis-tag (N); thrombin cleavage site (N); made in house; host or cells: E. coli BL21 (DE3) bioA
T9 sequence (B0F481 23-833 P421L): as the sequence (B0F481 23-833 W392S) above, with S370W, P399L counted along it
Outline: as §1

[10] = target: T10, Arabidopsis thaliana BIO3-BIO1 (BioDA) mutants (Arabidopsis thaliana, UniProt B0F481, A609Y)
T10 construct: with the predicted N-terminal mitochondrial transit peptide removed; 6xHis-tag (N); thrombin cleavage site (N); made in house; host or cells: E. coli BL21 (DE3) bioA
T10 sequence (B0F481 23-833 A609Y): as the sequence (B0F481 23-833 W392S) above, with S370W, A587Y counted along it
Outline: as §1

[11] = target: T11, Arabidopsis thaliana BIO3-BIO1 (BioDA) mutants (Arabidopsis thaliana, UniProt B0F481, W392M)
T11 construct: with the predicted N-terminal mitochondrial transit peptide removed; 6xHis-tag (N); thrombin cleavage site (N); made in house; host or cells: E. coli BL21 (DE3) bioA
T11 sequence (B0F481 23-833 W392M): as the sequence (B0F481 23-833 W392S) above, with S370M counted along it
Outline: as §1

[12] = target: T12, Arabidopsis thaliana BIO3-BIO1 (BioDA) mutants (Arabidopsis thaliana, UniProt B0F481, P510A)
T12 construct: with the predicted N-terminal mitochondrial transit peptide removed; 6xHis-tag (N); thrombin cleavage site (N); made in house; host or cells: E. coli BL21 (DE3) bioA
T12 sequence (B0F481 23-833 P510A): as the sequence (B0F481 23-833 W392S) above, with S370W, P488A counted along it
Outline: as §1

SMILES	inhibition at 1 µM [1] [%]	inhibition at 1 µM [2] [%]	inhibition at 1 µM [3] [%]	inhibition at 1 µM [4] [%]	inhibition at 1 µM [5] [%]	inhibition at 1 µM [6] [%]	inhibition at 1 µM [7] [%]	inhibition at 1 µM [8] [%]	inhibition at 1 µM [9] [%]	inhibition at 1 µM [10] [%]	inhibition at 1 µM [11] [%]	inhibition at 1 µM [12] [%]	inhibition at 0.2 µM [1] [%]	inhibition at 5 µM [1] [%]	inhibition at 0.2 µM [2] [%]	inhibition at 5 µM [2] [%]	inhibition at 0.2 µM [3] [%]	inhibition at 5 µM [3] [%]	inhibition at 0.2 µM [4] [%]	inhibition at 5 µM [4] [%]	further results
CCOC(=O)c1nn(-c2ccc3c(c2)OC(F)(F)C(F)(F)O3)c2cccc(C(C)=O)c2c1=O [Compound A, ethyl 5-acetyl-4-oxo-1-(2,2,3,3-tetrafluoro-1,4-benzodioxin-6-yl)cinnoline-3-carboxylate]	23	10	3	55	4	0	85	0	61	0	14	4	–	–	–	–	–	–	–	–	–
CCn1c(C)c(-c2ccc(F)cc2F)c(=O)c(C(=O)O)c1-c1ccc(Cl)c(Cl)c1 [Compound C, 2-(3,4-dichlorophenyl)-5-(2,4-difluorophenyl)-1-ethyl-6-methyl-4-oxo-pyridine-3-carboxylic acid]	0	31	5	59	0	7	24	75	35	0	30	28	0	20	3	70	9	13	46	91	inhibition at 0.2 µM [5]: 0%; inhibition at 5 µM [5]: 1%; inhibition at 0.2 µM [6]: 0%; inhibition at 5 µM [6]: 20%; inhibition at 0.2 µM [7]: 39%; inhibition at 5 µM [7]: 63%; inhibition at 0.2 µM [8]: 20%; inhibition at 5 µM [8]: 98%; inhibition at 0.2 µM [9]: 4%; inhibition at 5 µM [9]: 67%; inhibition at 0.2 µM [10]: 0%; inhibition at 5 µM [10]: 43%; inhibition at 0.2 µM [11]: 10%; inhibition at 5 µM [11]: 56%; inhibition at 0.2 µM [12]: 0%; inhibition at 5 µM [12]: 70%
CCn1c(Cn2ccc(C(F)(F)F)n2)cc(=O)c(C(=O)O)c1-c1ccc(Cl)c(Cl)c1 [Compound L, 2-(3,4-dichlorophenyl)-1-ethyl-4-oxo-6-[[3-(trifluoromethyl)pyrazol-1-yl]methyl]pyridine-3-carboxylic acid]	–	–	–	–	–	–	–	–	–	–	–	–	–	–	–	–	–	–	–	–	inhibition at 0.01 µM [3]: 3%; inhibition at 0.075 µM [3]: 17%; inhibition at 0.5 µM [3]: 19%; inhibition at 0.01 µM [5]: 10%; inhibition at 0.075 µM [5]: 15%; inhibition at 0.5 µM [5]: 11%; inhibition at 0.01 µM [6]: 0%; inhibition at 0.075 µM [6]: 0%; inhibition at 0.5 µM [6]: 0%; inhibition at 0.01 µM [9]: 0%; inhibition at 0.075 µM [9]: 10%; inhibition at 0.5 µM [9]: 45%; inhibition at 0.01 µM [10]: 0%; inhibition at 0.075 µM [10]: 0%; inhibition at 0.5 µM [10]: 0%; inhibition at 0.01 µM [12]: 0%; inhibition at 0.075 µM [12]: 0%; inhibition at 0.5 µM [12]: 63%
CCn1c(-c2ccc(Cl)c(Cl)c2)c(C(=O)O)c(=O)c2cc(F)ccc21 [Compound M, 2-(3,4-dichlorophenyl)-1-ethyl-6-fluoro-4-oxo-quinoline-3-carboxylic acid]	0	19	0	37	0	2	37	82	6	4	0	14	0	0	0	46	5	11	14	81	inhibition at 0.2 µM [5]: 0%; inhibition at 5 µM [5]: 0%; inhibition at 0.2 µM [6]: 7%; inhibition at 5 µM [6]: 25%; inhibition at 0.2 µM [7]: 27%; inhibition at 5 µM [7]: 84%; inhibition at 0.2 µM [8]: 23%; inhibition at 5 µM [8]: 98%; inhibition at 0.2 µM [9]: 0%; inhibition at 5 µM [9]: 31%; inhibition at 0.2 µM [10]: 0%; inhibition at 5 µM [10]: 45%; inhibition at 0.2 µM [11]: 0%; inhibition at 5 µM [11]: 22%; inhibition at 0.2 µM [12]: 0%; inhibition at 5 µM [12]: 51%
